For data set [1] the following is noted: octanol-water coefficient; cited from earlier work.
The conditions of data set [2]: @ 25° C., experimental; cited from earlier work.
The conditions of data set [3]: cited from earlier work.
For data set [4] the following is noted: cited from earlier work. This is another data set of the same source.
Data set [5] in a line: Breath 2-butanone after ingestion of food or 2-butanol taggant. The settings on record: foods: two servings; 2-butanol taggant: 40 mg ingested, n=7.
Description: To assess the interference produced by food, 6 subjects rapidly consumed (<5 min) two servings (≈16 fl. Oz) of yogurt or 2 servings (≈60 g) of cheddar cheese and breath samples were collected for 60 min after ingestion.
Data set [6] can be described thus: Aim 1: breath kinetics and dose-response after sublingual solutions (SAW). The data set is classed as in vivo, human. As for the experimental part: Dose-response relationships were determined in four study participants following sublingual administration of solutions containing D-limonene and methyl salicylate. […] Five seconds after administration of the solution, the participant would blow a single five second breath into the SAW sensor. […] The participant kept his or her mouth closed when not providing a sample and refrained from breathing through the mouth or talking during the collection period. In addition, the more promising solutions (7, 12 and 16) were tested in triplicate to estimate reproducibility within individuals.

The nature of data set [7]: D-limonene recovery from placebo SL powder by LCMS (stability). The data set is classed as physicochemical.
Description: Three replicate 30 mg portions of this powder were removed immediately after preparation and extracted with acetonitrile to recover the D-limonene. The extracts were analyzed by liquid chromatography-mass spectrometry (LCMS). This was repeated with three more portions after four hours and again after eight hours (FIG. 26).
A short description of data set [8]: Oral vanillin detection by direct breath LCMS (OrbiTrap). The data set is classed as in vivo, human. The settings on record: 30 μg vanillin in 10 μL neat ethanol on tongue. The source says: In the lower panel of FIG. 14, note how an internal standard (semi-volatile organic acid) stays constant for each of the six breaths.
Where [9] appears, read: dose that can be taken for remainder of life without regulatory concern.

Read-outs that look alike come from different tables or passages of the source.

In the case of `C=C(C)[C@@H]1CC=C(C)C(=O)C1` [L-carvone], in data set [1], the “log P” value was 2.71. Moreover, the “VP (vapor pressure)” value in data set [2] is 0.103 @ 25 °C mmHg. The “Water Sol” value in data set [3] (@ 25° C.) was 1,310 @ 25 °C mg/L.

As for `CCC(C)O` (stereo not drawn) [Formulation 2-butanol, 2-butanol], the results for the “permissible daily exposure (PDE)” value in data set [4] (setting [9]) and in data set [4] (orally) were 300 mg/day and 300 mg orally per day, respectively. Besides, the “Maximum 2-butanone (Cmax) in breath” value in data set [5] is “≈ 549 ppb”. Also, the “Tmax of 2-butanone in breath” value in data set [5] turned out to be 6.7 ± 0.6 min.

As for `CC(C)[C@@H]1CC[C@@H](C)C[C@H]1O` (racemic) [DL-menthol], in data set [2], the “VP (vapor pressure)” value was 0.0637 @ 25 °C mmHg. For the same molecule, in data set [3] (@ 25° C.), the “Water Sol” value is 456 @ 25 °C mg/L.

Regarding `COC(=O)c1ccccc1N` [methyl anthranilate], in data set [1], the “log P” value was 1.88. Besides, in data set [3] (@ 25° C.), the “Water Sol” value is 2,850 @ 25 °C mg/L.

As for `CCCC(C)=O` [Formulation 2-pentanone, 2-pentanone], the “permissible daily exposure (PDE)” value is 250 mg/day in data set [4] (setting [9]) and 250 mg orally per day in data set [4] (orally).

As to `CCO` [ethanol, reference compound], in data set [4] (orally), the “permissible daily exposure (PDE)” value was 166.7 mg orally per day.

On to `C=C(C)[C@H]1CC=C(C)CC1` [D-limonene, 4-isopropenyl-1-methylcyclohexene], for which the “breath concentration measured at 5 seconds lost by 50 seconds” value in data set [6] (human, in vivo) is 78%. Further, the “time course of flavorant concentration in exhaled breath” value in data set [6] (in vivo) is listed as “decayed exponentially over time”. Moreover, the results for the “D-limonene dose recovered from SL powder” value in data set [7] (at eight hours), in data set [7] (at four hours) and in data set [7] (just after preparation) were 11%, 22% and “Approximately 65%”, respectively.

For the molecule `CC(C)c1cccc(C(C)C)c1O` [propofol, reference compound], the “VP (vapor pressure)” value in data set [2] was 0.00305 @ 25 °C mmHg. The “Water Sol” value in data set [3] (@ 25° C.) was 124 @ 25 °C mg/L.

Regarding `COc1cc(C=O)ccc1O` [vanillin, 4-hydroxy-3-methoxybenzaldehyde], in data set [2], the “VP (vapor pressure)” value is 1.18E-04 @ 25 °C mmHg. Further, in data set [3] (@ 25° C.), the “Water Sol” value was 11,000 @ 25 °C mg/L. Also, the results for the “persistence in human breath” value in data set [8] and in data set [8] (listed as Vanillin) were 2 min and “≈ 2 min”, respectively.

Turning to `COC(=O)c1ccccc1O` [methyl salicylate, methyl-2-hydroxybenzoate], the “log P” value in data set [1] is reported as 2.55. For the same molecule, in data set [2], the “VP (vapor pressure)” value is 0.0343 @ 25 °C mmHg. The “Water Sol” value in data set [3] (@ 30° C.) is 700 @ 30 °C mg/L. Also, the “time course of flavorant concentration in exhaled breath” value in data set [6] (after a single SL administration) was “decayed exponentially over time”. For the same molecule, the “breath concentration measured at 5 seconds lost by 50 seconds” value in data set [6] (single SL administration, average) came out at 50%.

The term log P denotes a log measure of how a compound divides between an organic and an aqueous phase.

The record behind these values is patent US20140341983A1, “SMART™ SOLID ORAL DOSAGE FORMS” (priority 2011, published 2014).
